# Measurements taken from patent US20240299376A1, “METHOD OF TREATING A CONDITION USING A […] EFFECTIVE DOSE OF 1-(1-OXO-1,2-DIHYDROISOQUINOLIN-5-YL)-5-(TRIFLUOROMETHYL)-N-(2-(TRIFLUOROMETHYL)PYRIDIN-4-YL)-1H-PYRAZOLE-4-CARBOXAMIDE” (Janssen Pharmaceutica NV, priority 2021, published 2024).
# Columns and labels:
# [1] = Serum concentration after 28 days of oral dosing in male OCI-LY3 tumor-bearing NSG mice; format: in vivo; settings: mouse, mean; for concentration at 0.25 h: 0.25 h post last dose
# [2] = system: OCI-LY3 human DLBCL xenografts; assay: Antitumor efficacy in established OCI-LY3 human DLBCL xenografts; format: in vivo, NSG mice
# Description: The human ABC-DLBCL cell line OCI-LY3 was obtained from Dr. Miguel A Piris, Hospital Universitario Marques de Valdecilla, Santander, Spain. The human ABC-DLBCL cell line OCI-LY-10 was obtained from University Hospital Network, Ontario Cancer Institute. OCY-LY3 cells were maintained at 37° C. in a humidified atmosphere (5% CO2, 95% air), in RPMI-1640 medium with GlutaMAX™, supplemented with 10% Fetal Bovine Serum (Heat Inactivated at 57° C., and 1% Penicillin-Streptomycin). Each mouse received 1×10^6 cells in serum-free RPMI-1640 medium or PBS with Matrigel basement matrix […] in a total volume of 0.2 mL. Cells were implanted SC in the right flank using a 1 ml syringe and a 26-gauge needle. The day of tumor implantation was designated as Day 0.
# Tumor volume was calculated using the formula: tumor volume (mm^3)=(Dxd^2/2); where ‘D’ represents the larger diameter, and ‘d’ the smaller diameter of the tumor as determined by caliper measurements. Tumor volume data was graphically represented as the mean tumor volume±SEM.
# Percent tumor growth inhibition (TGI) was defined as the difference between mean tumor volumes of the treated and control group, calculated as
# where TVc is the mean tumor volume of a given control group and TVt is the mean tumor volume of the treatment group. As defined by National Cancer Institute criteria, ≥60% TGI is considered biologically significant.
# Group tumor volumes are graphed as the mean+/−SEM. Mice were implanted SC on the right flank on Day 0.
# For study 3, animals were randomly assigned into treatment groups, when the OCI-LY3 mean tumor volume was 164 mm^3 (Day 32 post-tumor cell implantation). Treatment was initiated on the day of randomization (Day 32). After 28 days of treatment on Day 60, serum was collected at 2, 4, and 12 hours post last dose for the bid treated groups or 2, 4 and 24 hours post last dose for qd treated groups in cohorts of 5 mice. Blood was collected from the retro-orbital sinus and submitted for bioanalytical analysis.
# OCI-LY3 cells = assay: Whole-gene transcriptomics; format: cell-based, human; settings: OCI-LY3 (Myd88 and CARD11 mutations)
# [3] = Single oral dose plasma PK in fasted dogs; format: in vivo, dog; settings: for bioavailability / AUC(0-inf) / Cmax / Tmax / AUC(0-t): beagle, dog, plasma, po; for AUC(0-t): Study 7, Tlast = 96 hours
# From the text: With the suspension formulation the double-peak phenomenon is even more pronounced.
# As observed in rats, dose escalation in dogs resulting in proportional or dose-related exposure with the PEG400 solution was unsuccessful in identifying a vehicle suitable for toxicology studies.
# [4] = female, 100 mg/kg, 2F, 100 mg/kg PO, 100% PEG400 solution, Study 7
# [5] = female, 280 mg/kg, 2F, 280 mg/kg PO, 100% PEG400 solution, Study 7
smiles,measurement,setting,value
"O=C(Nc1ccnc(C(F)(F)F)c1)c1cnn(-c2cccc3c(=O)[nH]ccc23)c1C(F)(F)F [Compound A, 1-(1-oxo-1,2-dihydroisoquinolin-5-yl)-5-(trifluoromethyl)-N-[2-(trifluoromethyl)pyridin-4-yl]-1H-pyrazole-4-carboxamide]",concentration at 0.25 h,[1]; 1 mg/kg BID PO 28 days,323 ng/mL
same,concentration at 0.25 h,[1]; 60 mg/kg QD PO 28 days,6990 ng/mL
same,concentration at 8 h,"[1]; 60 mg/kg QD PO 28 days, 8 h post last dose",10600 ng/mL
same,TGI,"[2]; 1 mg/kg BID PO, 4 weeks, vs vehicle control",37%
same,TGI (%) at day 28,"[2]; 1 mg/kg, bid (Table 4)",46%
same,TGI,"[2]; 3 mg/kg BID PO, 4 weeks, vs vehicle control",19%
same,TGI (%) at day 28,"[2]; 3 mg/kg, bid (Table 4)",23%
same,TGI,"[2]; 10 mg/kg BID PO, 4 weeks, vs vehicle control",53%
same,mean TGI,"[2]; 10 mg/kg BID, 3 independent OCI-LY3 antitumor efficacy studies",60%
same,TGI,"[2]; 10 mg/kg BID, previous efficacy studies in the OCI-LY3 model",51-76%
same,TGI,"[2]; 10 mg/kg, 8/16 hr split schedule instead of 12/12 hr",57%
same,TGI (%) at day 28,"[2]; 10 mg/kg, bid (Table 4)",66%
same,TGI,"[2]; 30 mg/kg BID PO, 4 weeks, vs vehicle control",72%
same,TGI,"[2]; 30 mg/kg BID, previous efficacy studies in the OCI-LY3 model",60-86%
same,TGI (%) at day 28,"[2]; 30 mg/kg, bid (Table 4)",90%
same,TGI,"[2]; 60 mg/kg QD PO, 4 weeks, vs vehicle control",57%
same,TGI (%) at day 28,"[2]; 60 mg/kg, qd (Table 4)",71%
same,TGI,"[2]; 100 mg/kg BID PO, 4 weeks, vs vehicle control",72%
same,TGI (%) at day 28,"[2]; 100 mg/kg, bid (Table 4)",90%
same,TGI,"[2]; 100 mg/kg, previous efficacy studies in the OCI-LY3 model",62-89%
same,tolerability,"[2]; 1 to 100 mg/kg (BID or QD), OCI-LY3 and OCI-LY10 xenograft models in NSG mice",well tolerated
same,minimum efficacious dose,"[2]; BID, OCI-LY3 model",10 mg/kg
same,gene expression changes,OCI-LY3 cells,clear dose-dependent gene expression changes
same,increase of Cmax or AUC with dose,"[3]; Study 7, doses of 100, 280, and 560 mg/kg, PEG400 solution",≤ 25%
same,bioavailability,"[3]; 5 mg/kg, 5 mg/kg PO, -ZAF salt nanosuspension (HPMC:DOSS suspension), Study 5",12 to 69%
same,bioavailability,"[3]; 20 mg/kg, 20 mg/kg PO, 0.5% HPMC suspension, Study 4",7 to 89%
same,bioavailability,"[3]; 20 mg/kg, 20 mg/kg PO, -ZAF salt nanosuspension (HPMC:DOSS suspension), Study 5",6.7%
same,bioavailability,"[3]; 22.5 mg/kg, 22.5 mg/kg PO, PEG400/PVP VA 90:10 solution, Study 6",> 100%
same,AUC(0-inf),"[3]; 560 mg/kg, 560 mg/kg PO, 100% PEG400 solution, Study 7, N = 1",1760 µg·h/mL
same,AUC(0-inf),[3]; [4],1360 µg·h/mL
same,Cmax,[3]; [4],24300 ng/mL
same,Tmax,[3]; [4],15.5 h
same,AUC(0-t),"[3]; female, 100 mg/kg, 2F, 100 mg/kg PO, 100% PEG400 solution",1250 µg·h/mL
same,AUC(0-inf),[3]; [5],1680 µg·h/mL
same,Cmax,[3]; [5],30600 ng/mL
same,AUC(0-t),"[3]; female, 280 mg/kg, 2F, 280 mg/kg PO, 100% PEG400 solution",1510 µg·h/mL
same,Tmax,"[3]; female, 280 mg/kg, 2F, 280 mg/kg PO, 100% PEG400 solution, Study 7, median",24 h
same,Cmax,"[3]; female, 280 mg/kg, 2F, 280 mg/kg PO, PEG400/PVP VA 90:10 solution, Study 7",106000 ng/mL
same,AUC(0-t),"[3]; female, 280 mg/kg, 2F, 280 mg/kg PO, PEG400/PVP VA 90:10 solution",1970 µg·h/mL
same,Tmax,"[3]; female, 280 mg/kg, 2F, 280 mg/kg PO, PEG400/PVP VA 90:10 solution, Study 7, median",24 h
same,Cmax,"[3]; female, 480 mg/kg, 2F, 480 mg/kg PO, PEG400/PVP VA 90:10 solution, Study 7",76600 ng/mL
same,AUC(0-t),"[3]; female, 480 mg/kg, 2F, 480 mg/kg PO, PEG400/PVP VA 90:10 solution",1510 µg·h/mL
same,Tmax,"[3]; female, 480 mg/kg, 2F, 480 mg/kg PO, PEG400/PVP VA 90:10 solution, Study 7, median",27.5 h
same,Cmax,"[3]; female, 560 mg/kg, 2F, 560 mg/kg PO, 100% PEG400 solution, Study 7",31800 ng/mL
same,AUC(0-t),"[3]; female, 560 mg/kg, 2F, 560 mg/kg PO, 100% PEG400 solution",2010 µg·h/mL
